Test results reported in patent US11897865B2, “ABHD12 inhibitors and methods of making and using same” (THE SCRIPPS RESEARCH INSTITUTE, priority 2018, dated 2024).

Molecular target: T1, ABHD12 (Mus musculus, UniProt Q99LR1)
T1 construct: from tissue; host or cells: brain membrane proteome
T1 sequence (Q99LR1 1-398): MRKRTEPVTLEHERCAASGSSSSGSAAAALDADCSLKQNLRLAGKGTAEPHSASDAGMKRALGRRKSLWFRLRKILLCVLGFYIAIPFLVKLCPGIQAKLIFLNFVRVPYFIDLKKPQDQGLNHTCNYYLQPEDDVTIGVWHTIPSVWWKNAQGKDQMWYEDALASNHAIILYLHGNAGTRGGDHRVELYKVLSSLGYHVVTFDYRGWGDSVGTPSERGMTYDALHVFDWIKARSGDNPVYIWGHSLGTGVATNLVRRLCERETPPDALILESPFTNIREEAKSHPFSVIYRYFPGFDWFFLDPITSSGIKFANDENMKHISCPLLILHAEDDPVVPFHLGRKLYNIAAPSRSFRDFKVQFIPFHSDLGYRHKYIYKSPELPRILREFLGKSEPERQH
Test: Gel-based competitive ABPP, JJH350 probe vs brain membrane proteome
Type: biochemical
Settings: for IC50: read-out: IC50 (ABPP gel_JJH350 probe vs brain mem); for inhibition at 10 µM: 10 μM compound, read-out: % Inhibition @ 10 μM (ABPP gel_JJH350 probe vs brain mem); for % Inhibition (ABPP gel_JJH350 probe vs brain mem), at 2 uM: at 2 uM compound
Procedure: Gel-Based Competitive ABPP for In Vitro Inhibitor Treatment of Proteomes:
Gel-based ABPP assays were performed as previously reported (Bachovchin, D. A. et al. Superfamily-wide portrait of serine hydrolase inhibition achieved by library-versus-library screening. Proc. Natl. Acad. Sci. U. S. A. 2010, 107, 20941-20946). Cell or tissue proteomes (50 μL, 1 mg/mL) were treated with either FP-Rh (1 μM final concentration) or JJH350 (2 μM final concentration) for 45 min at 37° C. For FP-Rh labeled samples, the reactions were quenched by adding 20 μL of 4× SDS-PAGE loading buffer. The 30 μL of the quenched samples were loaded on gel for analysis. For (S)-1,3-dioxo-7-(4-phenoxybenzoyl)hexahydroimidazo[1,5-a]pyrazin-2(3H)-yl 4-(4-(prop-2-yn-1-yloxy)phenyl)piperazine-1-carboxylate (JJH350)-labeled samples, copper-catalyzed azide-alkyne cycloaddition (CuAAC) was used for visualizing the labeled proteins following the reported protocol. Briefly, rhodamine-PEG3-N3 (1 μL/reaction, 1.25 mM in DMSO), CuSO4 (1 μL/reaction, 50 mM in H2O), TBTA (3 μL/reaction, 1.7 mM in DMSO/t-BuOH [1:4, v/v]) and tris(2-carboxyethyi)phosphine (TCEP) (1 μL/reaction, 50 mM in H2O, freshly prepared) were premixed. 6 μL of this click reagent mixture was immediately added to each JJH350-labeled samples (50 μL, 1 mg/mL) and incubated for 1 h at room temperature. The reactions were quenched by adding 20 μL of 4× SDS-PAGE loading buffer. The 40 μL of the quenched samples were loaded on a gel for analysis.
After separation by SDS-PAGE (10% acrylamide), samples were visualized by in-gel fluorescence scanning using the ChemiDoc MP system (Bio-Rad). Band intensities were quantified using the Image Lab (5.2.1) software (Bio-Rad).

Structure (SMILES)	IC50	inhibition at 10 µM	% Inhibition (ABPP gel_JJH350 probe vs brain mem), at 2 uM
O=C(Nc1cccnc1)NC1CCN(c2nccc(Oc3ccc(OC(F)(F)F)cc3Cl)c2Cl)CC1 [Example 6, 1-(1-(3-Chloro-4-(2-chloro-4-(trifluoromethoxy)phenoxy)pyridin-2-yl)piperidin-4-yl)-3-(pyridin-3-yl)urea]	100 to 1000 nM	–	–
FC(F)(F)c1cnc(N2CCC(NC(=S)Nc3ccccc3)CC2)c(Cl)c1 [Example 9, 1-(1-(3-Chloro-5-(trifluoromethyl)pyridin-2-yl)piperidin-4-yl)-3-phenylthiourea]	–	≥ 75%	–
C#Cc1ccc(N2CCC(NC(=S)Nc3cccnc3)CC2)nc1 [Example 10, 1-(1-(5-Ethynylpyridin-2-yl)piperidin-4-yl)-3-(pyridin-3-yl)thiourea]	–	–	C (at 2 uM) (% inhibition is greater than or equal to 25% and less than 50%)
FC(F)(F)c1cc(Cl)cnc1N1CCC(NC(=S)Nc2cccnc2)CC1 [Example 18, 1-(1-(5-Chloro-3-(trifluoromethyl)pyridin-2-yl)piperidin-4-yl)-3-(pyridin-3-yl)thiourea]	–	≥ 75%	–
C#Cc1cnc(N2CCC(NC(=S)Nc3cccnc3)CC2)c(Cl)c1 [Example 20, 1-(1-(3-Chloro-5-ethynylpyridin-2-yl)piperidin-4-yl)-3-(pyridin-3-yl)thiourea]	–	–	B (at 2 uM) (% inhibition is greater than or equal to 50% and less than 75%)
FC(F)(F)Oc1ccc(-c2ccnc(N3CCC(NC(=S)Nc4cccnc4)CC3)c2)cc1 [Example 22, 1-(Pyridin-3-yl)-3-(1-(4-(4-(trifluoromethoxy)phenyl)pyridin-2-yl)piperidin-4-yl)thiourea]	–	≥ 75%	–
FC(F)(F)Oc1cccc(-c2ccnc(N3CCC(NC(=S)Nc4cccnc4)CC3)c2)c1 [Example 23, 1-(Pyridin-3-yl)-3-(1-(4-(3-(trifluoromethoxy)phenyl)pyridin-2-yl)piperidin-4-yl)thiourea]	–	≥ 75%	–
FC(F)(F)c1ccccc1-c1ccnc(N2CCC(NC(=S)Nc3cccnc3)CC2)c1 [Example 24, 1-(pyridin-3-yl)-3-(1-(4-(2-(trifluoromethyl)phenyl)pyridin-2-yl)piperidin-4-yl)thiourea]	–	50 to 75%	–
S=C(Nc1cccnc1)NC1CCN(c2cc(OC3CCCCC3)ccn2)CC1 [Example 30, 1-(1-(4-(Cyclohexyloxy)pyridin-2-yl)piperidin-4-yl)-3-(pyridin-3-yl)thiourea]	1000 to 25000 nM	≥ 75%	–
S=C(Nc1cccnc1)NC1CCN(c2cc(OCCC3CC3)ccn2)CC1 [Example 33, 1-(1-(4-(2-Cyclopropylethoxy)pyridin-2-yl)piperidin-4-yl)-3-(pyridin-3-yl)thiourea]	–	≥ 75%	–
FC(F)(F)CCCOc1ccnc(N2CCC(NC(=S)Nc3cccnc3)CC2)c1 [Example 34, 1-(Pyridin-3-yl)-3-(1-(4-(4,4,4-trifluorobutoxy)pyridin-2-yl)piperidin-4-yl)thiourea]	–	≥ 75%	–
FC1(F)CCC(Oc2ccnc(N3CCC(NC(=S)Nc4cccnc4)CC3)c2)CC1 [Example 35, 1-(1-(4-((4,4-Difluoro-cyclohexyl)oxy)pyridin-2-yl)piperidin-4-yl)-3-(pyridin-3-yl)thiourea]	–	≥ 75%	–
CC(C)OC(=O)N1CCC(Oc2ccnc(N3CCC(NC(=S)Nc4cccnc4)CC3)c2)CC1 [Example 36, Isopropyl 4-((2-(4-(3-(pyridin-3-yl)thioureido)piperidin-1-yl)pyridin-4-yl)oxy)piperidine-1-carboxylate]	–	50 to 75%	–
S=C(Nc1cccnc1)NC1CCN(c2cc(OCc3ccccc3)ccn2)CC1 [Example 37, 1-(1-(4-(Benzyloxy)pyridin-2-yl)piperidin-4-yl)-3-(pyridin-3-yl)thiourea]	1000 to 25000 nM	≥ 75%	–
FC(F)(F)Oc1ccc(COc2ccnc(N3CCC(NC(=S)Nc4cccnc4)CC3)c2)cc1 [Example 39, 1-(Pyridin-3-yl)-3-(1-(4-((4-(trifluoromethoxy)benzyl)oxy)pyridin-2-yl)piperidin-4-yl)thiourea]	–	≥ 75%	–
Fc1ccc(COc2ccnc(N3CCC(NC(=S)Nc4cccnc4)CC3)c2)cc1F [Example 42, 1-(1-(4-((3,4-Difluorobenzyl)oxy)pyridin-2-yl)piperidin-4-yl)-3-(pyridin-3-yl)thiourea]	–	≥ 75%	–
S=C(Nc1cccnc1)NC1CCN(c2cc(-c3ccccc3)ccn2)CC1 [Example 45, 1-(1-(4-Phenylpyridin-2-yl)piperidin-4-yl)-3-(pyridin-3-yl)thiourea]	1000 to 25000 nM	25 to 50%	–
COc1ccc(-c2ccnc(N3CCC(NC(=S)Nc4cccnc4)CC3)c2)cc1 [Example 46, 1-(1-(4-(4-Methoxyphenyl)pyridin-2-yl)piperidin-4-yl)-3-(pyridin-3-yl)thiourea]	–	0 to 25%	–

Now from value to compound, other results behind:

IC50	inhibition at 10 µM	Structure (SMILES)	% Inhibition (ABPP gel_JJH350 probe vs brain mem), at 2 uM
–	≥ 75%	Cc1cnc(N2CCC(NC(=S)Nc3cccnc3)CC2)c(Cl)c1 [Example 8, 1-(1-(3-Chloro-5-methylpyridin-2-yl)piperidin-4-yl)-3-(pyridin-3-yl)thiourea]	–
–	≥ 75%	S=C(Nc1cccnc1)NC1CCN(c2ccc(Cl)cn2)CC1 [Example 11, 1-(1-(5-Chloropyridin-2-yl)piperidin-4-yl)-3-(pyridin-3-yl)thiourea]	–
–	≥ 75%	Fc1ccc(N2CCC(NC(=S)Nc3cccnc3)CC2)nc1 [Example 12, 1-(1-(5-Fluoropyridin-2-yl)piperidin-4-yl)-3-(pyridin-3-yl)thiourea]	–
–	≥ 75%	FC(F)(F)Oc1ccc(N2CCC(NC(=S)Nc3cccnc3)CC2)nc1 [Example 13, 1-(Pyridin-3-yl)-3-(1-(5-(trifluoromethoxy)pyridin-2-yl)piperidin-4-yl)thiourea]	–
–	50 to 75%	S=C(Nc1cccnc1)NC1CCN(c2ncccc2Cl)CC1 [Example 17, 1-(1-(3-Chloropyridin-2-yl)piperidin-4-yl)-3-(pyridin-3-yl)thiourea]	–
–	0 to 25%	S=C(Nc1cccnc1)NC1CCN(c2ccc(Cl)nc2)CC1 [Example 19, 1-(1-(6-Chloropyridin-3-yl)piperidin-4-yl)-3-(pyridin-3-yl)thiourea]	–
–	≥ 75%	Fc1cc(C(F)(F)F)cnc1N1CCC(NC(=S)Nc2cccnc2)CC1 [Example 21, 1-(1-(3-Fluoro-5-(trifluoromethyl)pyridin-2-yl)piperidin-4-yl)-3-(pyridin-3-yl)thiourea]	–
1000 to 25000 nM	≥ 75%	S=C(Nc1cccnc1)NC1CCN(c2cc(OCC3CC3)ccn2)CC1 [Example 31, 1-(1-(4- (Cyclopropylmethoxy)pyridin-2-yl)piperidin-4-yl)-3-(pyridin-3-yl)thiourea]	–
–	50 to 75%	FC(F)COc1ccnc(N2CCC(NC(=S)Nc3cccnc3)CC2)c1 [Example 32, 1-(1-(4-(2,2-Difluoroethoxy)pyridin-2-yl)piperidin-4-yl)-3-(pyridin-3-yl)thiourea]	–
–	≥ 75%	Fc1ccc(COc2ccnc(N3CCC(NC(=S)Nc4cccnc4)CC3)c2)cc1 [Example 38, 1-(1-(4-((4-Fluorobenzyl)oxy)pyridin-2-yl)piperidin-4-yl)-3-(pyridin-3-yl)thiourea]	–
–	≥ 75%	Fc1cc(Cl)ccc1Oc1ccnc(N2CCC(NC(=S)Nc3cccnc3)CC2)c1 [Example 43, 1-(1-(4-(4-Chloro-2-fluorophenoxy)pyridin-2-yl)piperidin-4-yl)-3-(pyridin-3-yl)thiourea]	–
1000 to 25000 nM	50 to 75%	COc1ccnc(N2CCC(NC(=S)Nc3cccnc3)CC2)c1 [Example 44, 1-(1-(4-Methoxypyridin-2-yl)piperidin-4-yl)-3-(pyridin-3-yl)thiourea]	–
–	≥ 75%	Fc1ccc(-c2ccnc(N3CCC(NC(=S)Nc4cccnc4)CC3)c2)cc1 [Example 47, 1-(1-(4-(4-Fluorophenyl)pyridin-2-yl)piperidin-4-yl)-3-(pyridin-3-yl)thiourea]	–
–	≥ 75%	Fc1ccc(-c2ccnc(N3CCC(NC(=S)Nc4cccnc4)CC3)c2)cc1F [Example 48, 1-(1-(4-(3,4-Difluorophenyl)pyridin-2-yl)piperidin-4-yl)-3-(pyridin-3-yl)thiourea]	–
